# In ChEMBL document CHEMBL4145540 (Eur J Med Chem, 2018):
# Calls of active or inactive are those of the source. The rule behind the calls is not given here.
# Columns and labels:
# [1] = system: A549; experiment: Cell cycle arrest in human A549 cells assessed as accumulation at G0/G1 phase at 135 nM after 20 hrs by propidium iodide staining based flow cytometry (reference value: 66 +/- 1%); assay type: functional
# [2] = system: HEK293; experiment: Antiproliferative activity against HEK293 cells after 2 days by MTT assay; assay type: cell-based; conditions: Homo sapiens, HEK293, 48 h
# [3] = Selectivity index, ratio of IC50 for antiproliferative activity against HEK293 cells to IC50 for antiproliferative activity against human HT-29 cells; assay type: toxicity, cell-based; conditions: HEK293 cells versus HT-29 cells, read-out: Ratio IC50
# [4] = system: A549; experiment: Antiproliferative activity against human A549 cells after 2 days by MTT assay; assay type: functional, cell-based; conditions: A549, 48 h
# [5] = system: HMEC-1; experiment: Antiproliferative activity against HMEC1 cells after 2 days by MTT assay; assay type: functional, cell-based; conditions: Homo sapiens, HMEC-1, 48 h
# [6] = system: HeLa; experiment: Antiproliferative activity against human HeLa cells after 2 days by MTT assay; assay type: functional, cell-based; conditions: 48 h
# [7] = system: HT-29; experiment: Antiproliferative activity against human HT-29 cells after 2 days by MTT assay; assay type: functional, cell-based; conditions: HT-29, 48 h
# [8] = system: A549; experiment: Cell cycle arrest in human A549 cells assessed as accumulation at G2/M phase at 135 nM after 20 hrs by propidium iodide staining based flow cytometry (reference value: 11 +/- 1%); assay type: functional
# [9] = system: MCF7; experiment: Antiproliferative activity against human MCF7 cells after 2 days by MTT assay; assay type: functional, cell-based; conditions: MCF7, 48 h
# [10] = system: HL-60; experiment: Antiproliferative activity against human HL60 cells after 2 days by MTT assay; assay type: functional, cell-based; conditions: HL-60, 48 h
# [11] = system: A549; experiment: Cell cycle arrest in human A549 cells assessed as accumulation at S phase at 135 nM after 20 hrs by propidium iodide staining based flow cytometry (reference value: 16 +/- 1%); assay type: functional
# [12] = Selectivity index, ratio of IC50 for antiproliferative activity against HEK293 cells to IC50 for antiproliferative activity against human HeLa cells; assay type: toxicity, cell-based; conditions: HEK293 cells versus HeLa cells, read-out: Ratio IC50
# [13] = Selectivity index, ratio of IC50 for antiproliferative activity against HEK293 cells to IC50 for antiproliferative activity against human MCF7 cells; assay type: toxicity, cell-based; conditions: HEK293 cells versus MCF7 cells, read-out: Ratio IC50
# [14] = system: A549; experiment: Cell cycle arrest in human A549 cells assessed as accumulation at sub-G0 phase at 135 nM after 20 hrs by propidium iodide staining based flow cytometry (reference value: 6.6 +/- 0.1%); assay type: functional
# [15] = system: MDA-MB-231; experiment: Antiproliferative activity against human MDA-MB-231 cells after 3 days by coulter counting method; assay type: functional, cell-based; conditions: MDA-MB-231, 72 h
# [16] = Selectivity index, ratio of IC50 for antiproliferative activity against HEK293 cells to IC50 for antiproliferative activity against human HL60 cells; assay type: toxicity, cell-based; conditions: HEK293 cells versus HL60 cells, read-out: Ratio IC50
# [17] = system: A549; experiment: Cell cycle arrest in human A549 cells assessed as accumulation at G0/G1 phase at 750 nM after 20 hrs by propidium iodide staining based flow cytometry (reference value: 66 +/- 1%); assay type: functional
# [18] = system: A549; experiment: Cell cycle arrest in human A549 cells assessed as accumulation at S phase at 750 nM after 20 hrs by propidium iodide staining based flow cytometry (reference value: 16 +/- 1%); assay type: functional
# [19] = system: A549; experiment: Cell cycle arrest in human A549 cells assessed as accumulation at sub-G0 phase at 750 nM after 20 hrs by propidium iodide staining based flow cytometry (reference value: 6.6 +/- 0.1%); assay type: functional
# [20] = system: A549; experiment: Cell cycle arrest in human A549 cells assessed as accumulation at G2/M phase at 750 nM after 20 hrs by propidium iodide staining based flow cytometry (reference value: 11 +/- 1%); assay type: functional
# [21] = system: HMEC-1; experiment: Vascular disruptive activity in HMEC1 cells assessed as disruption of preformed tubular networks after 4 hrs by matrigel based assay; assay type: functional, cell-based; conditions: Homo sapiens
# [22] = system: A549; experiment: Cell cycle arrest in human A549 cells assessed as accumulation at sub-G0 phase at 1500 nM after 20 hrs by propidium iodide staining based flow cytometry (reference value: 6.6 +/- 0.1%); assay type: functional
# [23] = system: A549; experiment: Cell cycle arrest in human A549 cells assessed as accumulation at G2/M phase at 1500 nM after 20 hrs by propidium iodide staining based flow cytometry (reference value: 11 +/- 1%); assay type: functional
# [24] = system: A549; experiment: Cell cycle arrest in human A549 cells assessed as accumulation at G0/G1 phase at 1500 nM after 20 hrs by propidium iodide staining based flow cytometry (reference value: 66 +/- 1%); assay type: functional
# [25] = system: A549; experiment: Cell cycle arrest in human A549 cells assessed as accumulation at S phase at 1500 nM after 20 hrs by propidium iodide staining based flow cytometry (reference value: 16 +/- 1%); assay type: functional
# [26] = system: MDA-MB-231; experiment: Inhibition of EBI binding to beta-tubulin colchicine binding site in human MDA-MB-231 cells at 100 uM preincubated for 16 hrs followed by EBI addition and measured after 1.5 hrs by Western blot analysis; assay type: cell-based
# [27] = system: A549; experiment: Cell cycle arrest in human A549 cells assessed as accumulation at S phase at 450 nM after 20 hrs by propidium iodide staining based flow cytometry (reference value: 16 +/- 1%); assay type: functional
# [28] = system: A549; experiment: Cell cycle arrest in human A549 cells assessed as accumulation at G2/M phase at 450 nM after 20 hrs by propidium iodide staining based flow cytometry (reference value: 11 +/- 1%); assay type: functional
# [29] = system: A549; experiment: Cell cycle arrest in human A549 cells assessed as accumulation at sub-G0 phase at 450 nM after 20 hrs by propidium iodide staining based flow cytometry (reference value: 6.6 +/- 0.1%); assay type: functional
# [30] = system: A549; experiment: Cell cycle arrest in human A549 cells assessed as accumulation at G0/G1 phase at 450 nM after 20 hrs by propidium iodide staining based flow cytometry (reference value: 66 +/- 1%); assay type: functional
# [31] = system: MDA-MB-231; experiment: Inhibition of EBI binding to beta-tubulin colchicine binding site in human MDA-MB-231 cells at 10 uM preincubated for 16 hrs followed by EBI addition and measured after 1.5 hrs by Western blot analysis; assay type: cell-based
# [32] = system: A549; experiment: Cell cycle arrest in human A549 cells assessed as accumulation at S phase at 275 nM after 20 hrs by propidium iodide staining based flow cytometry (reference value: 16 +/- 1%); assay type: functional
# [33] = system: A549; experiment: Cell cycle arrest in human A549 cells assessed as accumulation at G2/M phase at 275 nM after 20 hrs by propidium iodide staining based flow cytometry (reference value: 11 +/- 1%); assay type: functional
# [34] = system: A549; experiment: Cell cycle arrest in human A549 cells assessed as accumulation at G0/G1 phase at 275 nM after 20 hrs by propidium iodide staining based flow cytometry (reference value: 66 +/- 1%); assay type: functional
# [35] = system: A549; experiment: Cell cycle arrest in human A549 cells assessed as accumulation at sub-G0 phase at 275 nM after 20 hrs by propidium iodide staining based flow cytometry (reference value: 6.6 +/- 0.1%); assay type: functional
smiles,measurement,setting,value
COc1ccc(/C=C\c2cc(OC)c(OC)c(OC)c2)cc1NC(=O)Oc1ccc(C(F)(F)F)cc1,Activity,[1],22%
same,IC50,[2],0.057 µM
same,selectivity ratio,[3],2 to 11
same,IC50,[4],0.27 µM
same,IC50,[5],0.03 µM
same,IC50,[6],0.021 µM
same,IC50,[7],0.0276 µM
same,Activity,[8],39%
same,IC50,[9],0.0092 µM
same,IC50,[10],0.04 µM
same,Activity,[11],14%
same,selectivity ratio,[12],2 to 11
same,selectivity ratio,[13],2 to 11
same,Activity,[14],26%
same,IC50,[15],0.0215 µM
same,selectivity ratio,[16],2 to 11
COc1ccc(/C=C\c2cc(OC)c(OC)c(OC)c2)cc1NC(=O)Oc1ccc(C)cc1,Activity,[17],24%
same,IC50,[2],0.144 µM
same,IC50,[4],1.5 µM
same,Activity,[18],16%
same,IC50,[5],0.16 µM
same,IC50,[6],0.37 µM
same,IC50,[7],0.27 µM
same,IC50,[9],0.2 µM
same,IC50,[10],0.052 µM
same,Activity,[19],27%
same,IC50,[15],0.014 µM
same,Activity,[20],32%
COc1ccc(/C=C\c2cc(OC)c(OC)c(OC)c2)cc1NC(=O)Oc1ccccc1OC,IC50,[2],0.16 µM
same,IC50,[4],3 µM
same,Activity,[21],Dose-dependent effect
same,IC50,[5],0.4 µM
same,IC50,[6],0.348 µM
same,IC50,[7],0.29 µM
same,IC50,[9],0.23 µM
same,Activity,[22],17%
same,IC50,[10],0.35 µM
same,Activity,[23],43%
same,Activity,[24],29%
same,IC50,[15],> 0.1 µM
same,Activity,[25],12%
same,inhibition,[26],Active
COc1ccc(/C=C\c2cc(OC)c(OC)c(OC)c2)cc1NC(=O)Oc1cccc(C)c1C,IC50,[2],0.08 µM
same,Activity,[27],22%
same,IC50,[4],0.9 µM
same,IC50,[5],0.14 µM
same,IC50,[6],0.04 µM
same,Activity,[28],42%
same,Activity,[29],12%
same,IC50,[7],0.175 µM
same,IC50,[9],0.016 µM
same,IC50,[10],0.059 µM
same,Activity,[30],24%
same,IC50,[15],0.066 µM
COc1ccc(OC(=O)Nc2cc(/C=C\c3cc(OC)c(OC)c(OC)c3)ccc2OC)cc1,IC50,[2],0.13 µM
same,inhibition,[31],Active
same,IC50,[4],0.55 µM
same,Activity,[21],Dose-dependent effect
same,IC50,[5],0.12 µM
same,IC50,[6],0.2 µM
same,IC50,[7],0.35 µM
same,IC50,[9],0.23 µM
same,IC50,[10],0.05 µM
same,Activity,[32],14%
same,Activity,[33],46%
same,Activity,[34],25%
same,IC50,[15],0.069 µM
same,Activity,[35],14%
